Among the data in ChEMBL document CHEMBL2311417, “Synthesis and biological evaluation of N-aryl-7-methoxybenzo[b]furo[3,2-d]pyrimidin-4-amines and their N-arylbenzo[b]thieno[3,2-d]pyrimidin-4-amine analogues as dual inhibitors of CLK1 and DYRK1A kinases” (Eur J Med Chem, 2013) are IC50 values, retold here.

The target of test [1] is Dual specificity tyrosine-phosphorylation-regulated kinase 1A (Rattus norvegicus, UniProt Q63470). The test can be described thus: Inhibition of rat recombinant DYRK1A-GST expressed in Escherichia coli using KKISGRLSPIMTEQ as substrate.
Test [2] can be described thus: Inhibition of porcine brain CK1delta/epsilon using RRKHAAIGpSAYSITA as substrate. Also on record: species or system Sus scrofa.
For test [3], the target named is Glycogen synthase kinase-3 (Sus scrofa, UniProt B2LUN4+I6LNT8). The experiment in a line: Inhibition of porcine brain GSK3alpha/beta using GS-1 as substrate.
For test [4], the target named is Cyclin-dependent kinase 5/CDK5 activator 1 (Homo sapiens, UniProt Q00535). The test can be described thus: Inhibition of human recombinant CDK5/p25 after 30 mins by scintillation counting. The format is protein-complex assay.
Chain of Cyclin-dependent kinase 5/CDK5 activator 1 (Q00535 whole entry): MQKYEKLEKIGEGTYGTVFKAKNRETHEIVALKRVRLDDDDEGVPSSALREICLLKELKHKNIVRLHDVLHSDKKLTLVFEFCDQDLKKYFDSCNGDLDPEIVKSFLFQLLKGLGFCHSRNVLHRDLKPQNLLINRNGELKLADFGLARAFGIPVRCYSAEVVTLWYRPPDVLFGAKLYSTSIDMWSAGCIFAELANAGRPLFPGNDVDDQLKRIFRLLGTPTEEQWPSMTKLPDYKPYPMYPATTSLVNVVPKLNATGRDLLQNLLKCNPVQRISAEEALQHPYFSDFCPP
Chain of Cyclin-dependent kinase 5/CDK5 activator 1 (Q15078 whole entry, further chain): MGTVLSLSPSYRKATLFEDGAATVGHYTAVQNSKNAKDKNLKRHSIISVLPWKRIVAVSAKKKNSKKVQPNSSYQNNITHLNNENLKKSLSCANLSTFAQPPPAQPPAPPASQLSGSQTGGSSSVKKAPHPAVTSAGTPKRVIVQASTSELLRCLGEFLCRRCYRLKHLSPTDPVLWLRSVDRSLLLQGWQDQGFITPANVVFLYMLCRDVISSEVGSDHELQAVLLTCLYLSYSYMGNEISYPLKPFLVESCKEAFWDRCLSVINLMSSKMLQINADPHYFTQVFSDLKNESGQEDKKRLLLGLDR
In test [5] the target is Dual specificity protein kinase CLK1 (Homo sapiens, UniProt P49759).
Chain of Dual specificity protein kinase CLK1 (P49759 whole entry): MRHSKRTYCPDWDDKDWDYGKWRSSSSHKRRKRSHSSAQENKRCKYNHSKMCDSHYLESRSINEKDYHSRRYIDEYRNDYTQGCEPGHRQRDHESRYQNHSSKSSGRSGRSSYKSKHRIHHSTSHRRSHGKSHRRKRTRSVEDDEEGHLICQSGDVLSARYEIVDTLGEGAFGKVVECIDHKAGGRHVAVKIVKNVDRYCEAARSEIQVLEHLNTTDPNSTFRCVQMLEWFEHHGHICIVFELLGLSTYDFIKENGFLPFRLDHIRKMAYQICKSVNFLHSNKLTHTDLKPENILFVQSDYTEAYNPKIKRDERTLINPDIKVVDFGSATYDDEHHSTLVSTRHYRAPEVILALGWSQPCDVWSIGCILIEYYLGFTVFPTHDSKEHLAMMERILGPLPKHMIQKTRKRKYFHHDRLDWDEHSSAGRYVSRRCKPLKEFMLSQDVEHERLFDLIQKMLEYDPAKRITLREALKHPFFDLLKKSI

One may read the IC50 as the midpoint of a concentration-inhibition curve. In the case of `COc1ccc2c(c1)oc1c(Nc3ccc(Br)cc3)ncnc12`, the IC50 in test [1], in test [2], in test [3], in test [4] and in test [5] was above 10 µM each time.

In the case of `COc1ccc2c(c1)oc1c(Nc3ccccc3Cl)ncnc12`, the IC50 in test [1] was 3.2 µM; in test [2] it was above 10 µM; in test [3], above 10 µM; in test [4], above 10 µM; in test [5], 4.2 µM.

For the compound `COc1ccc2c(c1)sc1c(Nc3ccc(N(C)C)cc3)ncnc12`, the concentration for half-maximal inhibition (IC50) in test [1] was 0.66 µM; in test [2], above 10 µM; in test [3], above 10 µM; in test [4] it was above 10 µM; in test [5], 0.79 µM.

With `COc1ccc2c(c1)sc1c(Nc3ccc(Br)cc3F)ncnc12`, the IC50 in test [1] was 0.71 µM; in test [2], above 10 µM; in test [3], above 10 µM; in test [4], above 10 µM; in test [5] it was 2.3 µM.

As to `COc1ccc2c(c1)sc1c(Nc3cc(Cl)cc(Cl)c3)ncnc12`, the IC50 in test [1] is 8.1 µM; in test [2], above 10 µM; in test [3] it was above 10 µM; in test [4], above 10 µM; in test [5] it was above 10 µM.

Take `COc1ccc2c(c1)sc1c(Nc3ccc(Br)cc3)ncnc12`: the IC50 in test [1], in test [2], in test [3], in test [4] and in test [5] was above 10 µM throughout.

For the compound `COc1ccc2c(c1)oc1c(Nc3ccc(F)c(Cl)c3)ncnc12`, the IC50 in test [1], in test [2], in test [3], in test [4] and in test [5] was above 10 µM each time.

In the case of `COc1ccc2c(c1)sc1c(Nc3ccc4c(c3)OCCO4)ncnc12`, the IC50 was 0.5 µM in test [1]; above 10 µM in test [2]; above 10 µM in test [3]; above 10 µM in test [4]; 0.68 µM in test [5].

On to `COc1ccc2c(c1)sc1c(Nc3ccc(C#N)cc3)ncnc12`, for which the concentration for half-maximal inhibition (IC50) was 2.6 µM in test [1]; above 10 µM in test [2]; above 10 µM in test [3]; above 10 µM in test [4]; 6.8 µM in test [5].

For the compound `COc1ccc2c(c1)sc1c(Nc3ccc(F)c(Cl)c3)ncnc12`, the IC50 in test [1], in test [2], in test [3], in test [4] and in test [5] was above 10 µM in each case.

In the case of `COc1ccc2c(c1)oc1c(Nc3ccc4c(c3)OCO4)ncnc12`, the IC50 is 2.8 µM in test [1]; above 10 µM in test [2]; above 10 µM in test [3]; above 10 µM in test [4]; 2 µM in test [5].

As for `COc1ccc2c(c1)oc1c(Nc3ccc(F)cc3F)ncnc12`, the half-maximal inhibitory concentration (IC50) in test [1], in test [2], in test [3], in test [4] and in test [5] was above 10 µM in each case.

Consider `COc1ccc2c(c1)[nH]c1c(C)nccc12` [HARMINE], for which the IC50 in test [2] was 1.5 µM; in test [3], above 10 µM.

`COc1ccc2c(c1)oc1c(Nc3cccc(Cl)c3)ncnc12`: the IC50 in test [1], in test [2], in test [3], in test [4] and in test [5] was above 10 µM in each case.

On to `COc1ccc2c(c1)sc1c(Nc3ccc(F)cc3)ncnc12`, for which the IC50 in test [1], in test [2], in test [3], in test [4] and in test [5] was above 10 µM throughout.

For the compound `COc1ccc(Nc2ncnc3c2oc2cc(OC)ccc23)c(F)c1`, the IC50 in test [1], in test [2], in test [3], in test [4] and in test [5] was above 10 µM in each case.

Turning to `COc1ccc2c(c1)sc1c(Nc3cccc(C(F)(F)F)c3)ncnc12`, the IC50 in test [1], in test [2], in test [3], in test [4] and in test [5] was above 10 µM throughout.

As to `COc1ccc2c(c1)sc1c(Nc3ccc(Cl)c(Cl)c3)ncnc12`, the 50% inhibitory concentration (IC50) in test [1] was 2 µM; in test [2], above 10 µM; in test [3], above 10 µM; in test [4], above 10 µM; in test [5] it was 6.1 µM.

For the compound `COc1cc(Nc2ncnc3c2oc2cc(OC)ccc23)cc(OC)c1`, the half-inhibitory concentration (IC50) in test [1], in test [2], in test [3] and in test [4] was above 10 µM throughout.

As to `COc1ccc2c(c1)oc1c(Nc3ccc(OC)c(OC)c3)ncnc12`, the IC50 in test [1], in test [2], in test [3], in test [4] and in test [5] was above 10 µM throughout.

`COc1ccc2c(c1)oc1c(Nc3ccc(F)cc3)ncnc12`: the IC50 in test [1], in test [2], in test [3], in test [4] and in test [5] was above 10 µM throughout.

For `COc1ccc2c(c1)sc1c(Nc3ccccc3Cl)ncnc12`, the IC50 in test [1] was 0.61 µM; in test [2], above 10 µM; in test [3], above 10 µM; in test [4], above 10 µM; in test [5], 3.1 µM.

With `COc1ccc2c(c1)sc1c(Nc3ccc(Cl)cc3)ncnc12`, the IC50 in test [1], in test [2], in test [3], in test [4] and in test [5] was above 10 µM each time.

As for `COc1ccc(Nc2ncnc3c2sc2cc(OC)ccc23)c(F)c1`, the IC50 is 0.71 µM in test [1]; above 10 µM in test [2]; above 10 µM in test [3]; above 10 µM in test [4]; above 10 µM in test [5].

Turning to `COc1ccc2c(c1)sc1c(Nc3cccc(Cl)c3)ncnc12`, the IC50 in test [1], in test [2], in test [3], in test [4] and in test [5] was above 10 µM each time.

On to `COc1ccc2c(c1)oc1c(Nc3ccc(C)cc3)ncnc12`, for which the IC50 in test [1], in test [2], in test [3] and in test [4] was above 10 µM throughout.

For the compound `COc1ccc2c(c1)oc1c(Nc3cccc(C)c3)ncnc12`, the IC50 in test [1], in test [2], in test [3], in test [4] and in test [5] was above 10 µM each time.

Regarding `COc1ccc2c(c1)oc1c(Nc3cccc(C(F)(F)F)c3)ncnc12`, the IC50 in test [1], in test [2], in test [3], in test [4] and in test [5] was above 10 µM in each case.

As to `COc1ccc2c(c1)sc1c(Nc3ccc4c(c3)OCO4)ncnc12`, the half-maximal inhibitory concentration (IC50) in test [1], in test [2], in test [3], in test [4] and in test [5] was above 10 µM throughout.

For the compound `COc1ccc2c(c1)oc1c(Nc3ccc4c(c3)OCCO4)ncnc12`, the half-maximal inhibitory concentration (IC50) in test [1], in test [2], in test [3], in test [4] and in test [5] was above 10 µM in each case.

Turning to `COc1ccc2c(c1)oc1c(Nc3ccc(Cl)cc3)ncnc12`, the IC50 in test [1], in test [2], in test [3], in test [4] and in test [5] was above 10 µM throughout.

Consider `COc1ccc2c(c1)oc1c(Nc3ccccc3)ncnc12`, for which the IC50 in test [1], in test [2], in test [3], in test [4] and in test [5] was above 10 µM throughout.

Take `COc1ccc2c(c1)sc1c(Nc3ccccc3)ncnc12`: the IC50 in test [1], in test [2], in test [3], in test [4] and in test [5] was above 10 µM each time.

Take `COc1ccc2c(c1)sc1c(Nc3ccc(C)cc3)ncnc12`: the IC50 in test [1], in test [2], in test [3], in test [4] and in test [5] was above 10 µM throughout.

For the compound `COc1ccc2c(c1)sc1c(Nc3cc(OC)c(OC)c(OC)c3)ncnc12`, the IC50 in test [1], in test [2], in test [3], in test [4] and in test [5] was above 10 µM throughout.

As for `COc1ccc2c(c1)sc1c(Nc3ccc(OC)c(OC)c3)ncnc12`, the 50% inhibitory concentration (IC50) is 0.93 µM in test [1]; above 10 µM in test [2]; above 10 µM in test [3]; above 10 µM in test [4]; 2.8 µM in test [5].

For the compound `COc1ccc2c(c1)sc1c(N)ncnc12`, the IC50 in test [1], in test [2], in test [3], in test [4] and in test [5] was above 10 µM in each case.

Regarding `COc1cc(Nc2ncnc3c2sc2cc(OC)ccc23)cc(OC)c1`, the IC50 is 3.9 µM in test [1]; above 10 µM in test [2]; above 10 µM in test [3]; above 10 µM in test [4]; 5.1 µM in test [5].

For `COc1ccc2c(c1)sc1c(Nc3ccc(Cl)cc3Cl)ncnc12`, the IC50 in test [1] is 1.6 µM; in test [2], above 10 µM; in test [3], above 10 µM; in test [4], above 10 µM; in test [5], above 10 µM.
